Data: PMC5538626, “Structural and functional analysis of the GABARAP interaction motif (GIM)” (EMBO Reports, 2017)
pKd: −log10 of the molar value. Ends that are not written are not given here.

Experiments:
GABARAP-L1 = biological target: T1, GABARAP-L1 (Homo sapiens, UniProt Q9H0R8); experiment: ITC titration of PLEKHM1-LIR peptide into GABARAP-L1; format: binding; conditions: 25°C, pH 7.0
T1 construct: modified Ub-leader (ubiquitin fusion leader) (N); made in house; host or cells: E. coli NEB T7 Express
Experimental: (§1) The genes for the truncated LC3A^2–121, LC3C^8–125, GABARAP^2–117 and GABARAP‐L1^2–117 proteins were cloned into pET30ΔSE vector between the BamHI and XhoI sites using previously established protocols 38. The chimeric constructs of the PLEKHM1‐LIR attached to the LC3A, GABARAP and GABARAP‐L1 proteins were prepared by inserting the oligonucleotide sequence corresponding to the PLEKHM1‐LIR peptide (P^629[…]^638) and glycine–serine linker into the BamHI site of the pET30ΔSE vector, placing the PLEKHM1‐LIR at the N‐terminal of the mature chimeric protein (similar to 31, 38). For the expression of human LC3 and GABARAP proteins for ITC and NMR experiments, plasmids with appropriate modified Ub‐leaders in pET vectors were used 39. Gene, encoding PLEKHM1‐LIR peptide, was ordered as synthetic oligonucleotides (Eurofins Genomics GmbH) and cloned into the pET39_Ub63_ vector 39 by NcoI–BamHI restriction sites. After TEV cleavage, the resulting peptide has the amino acid sequence GAMG‐P^629[…]^642, where the first four residues (GAMG) are the cloning artefact.
(§2) The chimeric constructs were expressed as a His‐tag fusion protein in E. coli BL21(DE3) cells. The cells were induced with 0.3 mM IPTG at OD600 0.6 for 16 h at 26°C. The cell pellets were lysed using mechanical sonication in lysis buffer (20 mM Tris–HCl pH 9.0, 100 mM NaCl, 10 mM imidazole, supplemented with 0.1% Triton X‐100). The proteins were purified using Ni‐NTA beads (GE Healthcare) and the His‐tag was cleaved using thrombin (Invitrogen) at room temperature for 16 h. The last step was gel filtration chromatography using a Superdex S200/300 GL column (GE Healthcare). The proteins were concentrated using spin concentrators (Vivaspin). For ITC and NMR studies, the non‐labelled and stable isotopes labelled LC3 and GABARAP proteins were obtained based on the protocols described elsewhere 30, 39. Here, E. coli NEB T7 Express culture transformed with corresponding plasmids were grown till OD600 nm = 1.0 and protein expression was induced with 0.2 mM IPTG. The cultures were incubated at 25°C for 8–12 h before cell harvesting. Isolation and purification procedures were similar to those reported in Ref. 22, 40. Before experiments, all proteins and peptides were equilibrated with a buffer containing 50 mM Na2HPO4, 100 mM NaCl at pH 7.0, and supplied with 5 mM protease inhibitor cocktail.
(§3) The protocol for preparation of non‐labelled and ^13C,^15N‐labelled PLEKHM1‐LIR peptide was slightly modified to achieve highest yield of the peptide. The 50 ml M9 culture was inoculated with NEB T7 cell transformed with pET39_Ub63‐PLEKHM1‐LIR plasmid and grown overnight at 37°. The collected cells were resuspended in 2 l of either LB or M9 media contained 1.5 g ^15N‐labelled NH4Cl and 3.0 g of ^13C‐labelled glucose. The cultures were grown at 37° till A(600 nm) = 0.9 and supplied with 1 mM of IPTG to induce Ub63‐PLEKHM1‐LIR overexpression (3 h at 37°). After that cells were harvested by centrifugation, re‐suspended in buffer contained 50 mM Tris–HCl pH = 7.9, 200 mM NaCl, 5% glycerol, 0.1 mg/ml DNase A and 4 mM protease inhibitor cocktail. After cell lysis by French press, debris was removed by centrifugation and clear supernatant was applied onto the column contained Ni‐NTA Sepharose equilibrated with the loading buffer (50 mM Tris–HCl pH = 7.9, 250 mM NaCl, 1% glycerol and 20 mM imidazole). Elution was performed with 400 mM imidazole in the same buffer. An aliquot of pure Ub63‐PLEKHM1‐LIR fractions was further purified by gel filtration on Superdex75 26 × 60 column for control ITC and analytical size exclusion chromatography experiments, remaining fusion protein was processed with the TEV‐protease and PLEKHM1‐LIR peptide was purified to 95% purity by reverse Ni‐NTA chromatography and followed gel filtration on Superdex75 26 × 60 column. Peak maximum of peptide was detected at […] (void volume 115 ml). Pure peptide was concentrated in Amicon concentrators with cut‐off of 3 kDa (> 95% retention). […]

[1] = biological target: LC3-subfamily of proteins; experiment: ITC, LC3-subfamily (range); format: binding, human
Experimental: (§4) All titration experiments were performed at 25°C using a VP‐ITC microcalorimeter (Malvern Instruments Ltd, UK). The ITC data were analysed with the ITC‐Origin 7.0 software with a “one‐site” binding model. The peptides at concentrations of 0.4 mM were titrated into 0.020 mM LC3 and GABARAP proteins in 26 steps. The protein and peptide concentrations were calculated from the UV absorption at 280 nm by NanoDrop spectrophotometer (Thermo Fisher Scientific, DE, USA).

GABARAP proteins = experiment: ITC, GABARAP proteins (range); format: binding, human
Experimental: as §4

LC3B = biological target: T2, LC3B (Homo sapiens, UniProt Q9GZQ8); experiment: ITC titration of PLEKHM1-LIR peptides into LC3B; format: binding; conditions: ITC, 25°C, pH 7.0; for ΔH: VP-ITC, one-site model, 0.4 mM peptide into 0.020 mM protein, 50 mM Na2HPO4, 100 mM NaCl
T2 construct: modified Ub-leader (ubiquitin fusion leader) (N); made in house; host or cells: E. coli NEB T7 Express
Experimental: as §1, §2, §3

T1 sequence (Q9H0R8 whole entry, the tested form may be a part): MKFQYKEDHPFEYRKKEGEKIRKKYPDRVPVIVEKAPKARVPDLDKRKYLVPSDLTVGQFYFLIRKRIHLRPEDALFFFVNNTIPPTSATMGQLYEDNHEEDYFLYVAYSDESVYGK

## GAMGPQQEDEWVNVQYPD [PLEKHM1‐LIR WT]
GABARAP-L1; VP-ITC, one-site model, 0.4 mM peptide into 0.020 mM protein, 50 mM Na2HPO4, 100 mM NaCl
  ΔH: -32.6 ± 0.42 kJ/mol
GABARAP-L1
  KA: 1.3 ± 0.1 ×10^6 M^−1
  N (number of binding sites): 1.00 ± 0.01
  ΔG: -34.9 kJ/mol
  ΔS: +1.94 cal mol^−1 K^−1
  −T × ΔS: -2.43 kJ/mol
[1]
  pKd: 5.20 to 5.46
GABARAP proteins
  pKd: 6.11 to 6.26
LC3B
  ΔH: -24.3 ± 0.84 kJ/mol
  KA: 0.16 ± 0.01 ×10^6 M^−1
  N (number of binding sites): 1.06 ± 0.01
  ΔG: -29.7 kJ/mol
  ΔS: +4.27 cal mol^−1 K^−1
  −T × ΔS: -5.31 kJ/mol
LC3B; listed as PLEKHM1-LIR
  ΔH: -24.3 ± 0.84 kJ/mol
  KA: 0.16±0.01 ×10^6 M^−1
  ΔG: -29.7 kJ/mol
  −T × ΔS: -5.31 kJ/mol
